Laboratory results: patent US20230391824A1, “RATIONALE, DESIGN, SYNTHESIS AND VALIDATION OF A SMALL MOLECULE ANTICANCER AGENT” (priority 2021, published 2023)
Read-outs that look alike come from different tables or passages of the source.

Key:
NT-2 testicular tumor = NT-2 testicular tumor xenograft in SCID mice; assay type: in vivo; details: male SCID mice; for growth of NT-2 tumors: every 2 days
Experimental: FIG. 14A-C: Male SCID NT-2 testicular tumor bearing mice treated with 4 mg/kg Compound of formula (I) (P1 version) via oral route of administration (P.O). […] Tumor areas were measured with a Vernier caliper (prior to each treatment cycle). Animals were euthanized when the control (0.1% DMSO:PBS) treated mice reached the defined endpoint of 225 mm^2. Data representative of at least 5 independent experiments. […] (B) is a graph depicting percentage change of tumour volume versus days after the first treatment. (C) is a graph depicting percentage survival versus days after the first treatment.
FIG. 15A-D: Male SCID NT-2 testicular tumor bearing mice treated with 4 mg/kg Compound of formula (I) (P1 version) via intraperitoneal route of administration (I.P). […] Tumor areas were measured with a Vernier caliper (prior to each treatment cycle). Animals were euthanized when the control (0.1% DMSO:PBS) treated mice reached the defined endpoint of 225 mm^2. Data representative of at least 5 independent experiments. […] (B) is a graph depicting percentage of tumour size versus days after the first treatment. (C) is a graph depicting percentage survival versus days after the first treatment. (D) is a photograph showing excised tumours.
FIG. 16A&B: Male SCID NT-2 testicular tumor bearing mice treated with 4 mg/kg Compound of formula (I) (P1 isomer) via intravenous route of administration (I.V). […] Tumor areas were measured with a Vernier caliper (prior to each treatment cycle). Animals were euthanized when the control (0.1% DMSO:PBS) treated mice reached the defined endpoint of 225 mm^2. Data representative of at least 5 independent experiments. (A) is a photograph showing excised tumours. (B) is graph depicting percentage of tumor size versus number of treatments.
All animal procedures were carried out in accordance with the guidelines of the Canadian Council on Animal Care and the NIH guidelines on the care and use of laboratory animals. All protocols were reviewed and approved by the Animal Care Committee of the University of Calgary (Protocol approval number: AC21-0147). Six- to eight-week-old female or male CB17 severe combined immunodeficiency (SCID) mice (Charles River Laboratories, Saint-Constant, QC, Canada) were subcutaneously injected in the right flank with 3×10^6 YP-MEL or NT-2 cells suspended in 0.1 mL sterile PBS. After tumor injection, animals with detectable tumor growth of at least 50 mm^2 were randomized into groups. The groups were treated with either 0.1% DMSO:PBS vehicle or 4 mg/kg of Compound of formula (I) dissolved in the vehicle, intraperitoneally (I.P), orally (P.O) or intravenously (I.V). Animals and respective cages were monitored for food and bedding supplies daily; doses were injected every 2 days and tumor areas were measured with a Vernier caliper (prior to each treatment cycle). When vehicle treated tumors reached the defined endpoint of 225 mm^2, every mouse in the group were euthanized. Tumors were excised and immediately imaged and processed for western blotting or fixed in paraformaldehyde for toxicology evaluation. (A)

Solubility = assay type: physicochemical
[1] = tested on: BHQ1-pre-let7a and EGFP-Lin28A bound complexes; assay: FRET assay, displacement of BHQ1-pre-let7a from EGFP-Lin28A; assay type: binding; details: at 1 μM; 19B-let7a at 100 nM
Experimental: This method was adapted from Roos et al (2016). HEK 293-T cells (ATCC) were cultured as monolayers in DMEM GlutaMAX™-1 (Cat #31966-021, Gibco®, Life Technologies) supplemented with 10% of FBS (fetal bovine serum). Stable EGFP-Lin28A HEK 293-T cells were cultured as monolayers in DMEM supplemented with 10% of FBS (fetal bovine serum) and 0.5 mg/ml Geneticin G418 (10131-035, Life Technologies). Transfections were performed according to the manufacturer's protocol with […] (12252-011, Invitrogen, Life Technologies) for siRNAs and JetPEI (101-10, Polyplus transfections) was used for plasmid DNA. […]
160,000 HEK 293 T cells were seeded per well in 6 well plates and transfected with 320 ng pEGFP-C2-Lin28A plasmid according to the experimental setup with the reagents described above and cells were allowed to recover for 48h. […] The EGFP-lin28A| expressing cells were sorted using Fluorescence Activated Cell Sorting (FACS). Finally, larger colonies of individual clones were analyzed for expression levels of EGFP-Lin28A by performing the FRET assay. […]
FRET system (EGFP-Lin28A and 19B-let7a) treated with DMSO was used as positive control. […] The FRET measurements were obtained from the optimized fluorescence parameter. […] The average signal intensity and background fluorescence were corrected with compound self-fluorescence with and without binding buffer.

SMILES: CC[C@H](C)[C@H](NC(=O)[C@H](Cc1ncc[nH]1)NC(=O)c1cccc(C(N)=O)c1)C(=O)Nc1ccc(O)c(-c2nc3ccccc3s2)c1 [Compound P1]
- treated animals that survived tumor-free for 120 days (NT-2 testicular tumor; 4 mg/kg I.P): at least 50%
- growth of NT-2 tumors (NT-2 testicular tumor; 4 mg/kg I.P): significantly reduced the growth
- growth of NT-2 tumors (NT-2 testicular tumor; 4 mg/kg I.V): significantly reduced the growth
- tumor shrinkage (NT-2 testicular tumor; 4 mg/kg I.V, with only 4 doses): in some cases showed complete shrinkage
- growth of NT-2 tumors (NT-2 testicular tumor; 4 mg/kg P.O): significantly reduced the growth
- solubility (Solubility; DMSO, organic solvent or mixture, read-out: solubility in DMSO): 100 mg/mL
- solubility (Solubility; organic solvent or mixture, DMSO, freeze dried, RP-HPLC purified P1, read-out: solubility in DMSO): 10 mM
- solubility (Solubility; water/PBS/culture medium, aqueous buffer, read-out: solubility in water/PBS/culture medium): 0.05 mM
- reduction in FRET [1]: 70%
